Source: PubChem BioAssay AID1996
In brackets after ≈: the same amount, converted by molar mass.

conditions: buffer; pH 7.4; 200.0 µM

| solubility kinetic [µg/mL] | Compound |
| --- | --- |
| 52.1 | O=[N+]([O-])c1ccc(C(O)C[n+]2ccccc2)cc1.[I-] (configuration not stated) |
| 15.8 (≈ 37.8 µM) | CN(C(=O)COC(=O)c1ccc(S(=O)(=O)N2CCOCC2)cc1)c1ccccc1 |
| > 57.1 | CCC(=O)c1ccc(OCC(=O)NC2CCN(Cc3ccccc3)CC2)cc1 |
| > 36.6 | CCN(Cc1ccncc1)C(=O)c1ccc(C)o1 |
| 1 | COc1ccc2cc(C(=O)NCc3ccccc3)[nH]c2c1.Cl |
| > 45.8 | Cc1ccc(C)n1-c1ccc(C(=O)NCc2cccnc2)cc1 |
| 1.9 (≈ 6.43 µM) | COc1cccc(NC(=O)c2cc(=O)c3ccccc3o2)c1 |
| 23.2 (≈ 76.5 µM) | Cc1ccc(CSCC(=O)NCc2ccc(F)cc2)cc1 |
| 26.2 | Cc1cc2c([nH]c3ccccc32)c(C)[nH+]1.[Cl-] |
| > 39.2 | CC1CC1C(=O)OCC(=O)NC(=O)c1ccccc1 (configuration not stated) |
| 18.6 (≈ 64.3 µM) | CC(=O)c1ccc(NC(=O)c2noc(C)c2[N+](=O)[O-])cc1 |
| 46.6 (≈ 142 µM) | O=C(NCCNC(=O)c1cc(Cl)ccc1Cl)c1ccco1 |
| 33.7 (≈ 133 µM) | CCC(=O)c1ccc(SC(=O)N(C)C)cc1O |
| 53.2 (≈ 133 µM) | Cc1ccc(/C=C/C(=O)O)cc1S(=O)(=O)N1CCC(Cc2ccccc2)CC1 |
| 17.2 (≈ 49.4 µM) | CC1CCCCC12NC(=O)N(CC(=O)OCc1ccccc1F)C2=O (configuration not stated) |
| > 47.9 | NC(=O)C1CCCN(C(=O)c2ccc3c(c2)NC(=O)CS3)C1 (configuration not stated) |
| > 43.9 | CCN(C(=O)C(=O)c1c[nH]c2ccccc12)c1ccccc1 |
| > 11.4 | NC(N)=S |
| > 49.8 | CCCCC(=O)Nc1cccc(NC(=O)c2cccnc2Cl)c1 |
| 38.4 | CC(=O)c1ccc(NC(=O)CNC2CCCCC2)cc1.Cl |

| solubility kinetic [µg/mL] | Compound |
| --- | --- |
| 6.4 (≈ 16.2 µM) | Cc1oc(C(C)(C)C)cc1C(=O)N1CCN(c2ccc(C(F)(F)F)cn2)CC1 |
| 49.2 (≈ 147 µM) | C=CCN1C(=O)C(CC(=O)O)SC1=Nc1ccc(C(=O)O)cc1 (configuration not stated) |
| 5.8 (≈ 17.7 µM) | Cc1cccc(-c2nc(Nc3ccc(O)cc3)c3ccccc3n2)c1 |
| > 51.1 | CCS(=O)(=O)N1CCC(C(=O)NCc2ccc(OC)cc2)CC1 |
| 3.4 (≈ 10.4 µM) | CCOc1ccccc1NC(=O)NC(C)c1ccc2c(c1)OCO2 (configuration not stated) |
| > 44.9 | O=C(O)c1cc(-c2cccc3ccccc23)nc2ccccc12 |
| > 47.8 | CS(=O)(=O)N1CCCC(C(=O)Nc2ccc(F)c(F)c2)C1 (configuration not stated) |
| 8.9 (≈ 28.8 µM) | O=C(COc1ccccc1)OCC(=O)c1c[nH]c2ccccc12 |
| > 44.9 | O=C(O)CNS(=O)(=O)c1ccc2[nH]c(=O)c(=O)[nH]c2c1 |
| 2.1 (≈ 6.38 µM) | Oc1ccc(Nc2nc(-c3ccccc3O)nc3ccccc23)cc1 |
| > 37.8 | CC(C)NCc1nnc(-c2ccc(Cl)cc2)o1 |
| > 71.2 | CCOC(=O)[C@H](CCc1ccccc1)N[C@@H](C)C(=O)N1Cc2ccccc2C[C@H]1C(=O)O.Cl |
| > 51.2 | Cc1ccc(C(=O)O)cc1NS(=O)(=O)c1ccc2ccccc2c1 |
| 1.1 (≈ 3.69 µM) | CCCNc1nc(Cl)nc(Nc2ccc(Cl)cc2)n1 |
| > 46.9 | Cc1ccc(C(=O)Nc2ccc(C(=O)N3CCCCC3)cc2)o1 |
| 0.4 (≈ 2.34 µM) | Cc1c(C)n2c3c(cccc13)CC2 |
| > 53.6 | Cc1ccc(/C=C/C(=O)O)cc1S(=O)(=O)N1CCCc2ccccc21 |
| > 73 | COc1cc(/C=C/C(=O)O)cc(S(=O)(=O)Nc2ccccc2C(=O)NCc2ccco2)c1OC |
| < 0.3 | COc1cc(/C=C/c2onc(C)c2[N+](=O)[O-])cc(OC)c1OC |
| 66.4 (≈ 148 µM) | CCOc1ccc(NS(=O)(=O)c2cc(C(=O)NCCN3CCOCC3)ccc2C)cc1 |

| solubility kinetic [µg/mL] | Compound |
| --- | --- |
| 46.4 (≈ 139 µM) | O=C(O)c1c(N2CCCCC2)ccc([N+](=O)[O-])c1N1CCCCC1 |
| > 51.3 | Cc1ccc[n+](CC(=O)Nc2ccc(Cl)c([N+](=O)[O-])c2)c1.[Cl-] |
| 2.7 (≈ 8.1 µM) | COc1ccc2nc(C)cc(N3CCN(c4ccccc4)CC3)c2c1 |
| 3.4 (≈ 17.2 µM) | c1ccc2nc3c(cc2c1)CCCCC3 |
| > 42.2 | O=C(NCCCn1ccnc1)c1ccc2nccnc2c1 |
| > 61 | CN(C)CCOC(c1ccc(Cl)cc1)c1ccccn1.O=C(O)/C=C/C(=O)O (configuration not stated) |
| 2.4 (≈ 8.1 µM) | Cc1cc(NC(=O)CCc2ccc(-c3ccccc3)o2)no1 |
| 33 (≈ 103 µM) | CN1C(=O)/C(=C\c2ccco2)N=C1c1ccc(Cl)cc1Cl |
| > 50 | CCCn1c(SCC(=O)N(CC)CC)nnc1-c1ccncc1 |
| 37.6 (≈ 135 µM) | CC(C)S(=O)(=O)c1cnc(-c2ccccn2)nc1N |
| < 0.7 | Cc1ccc(C2NC(c3ccc(C)cc3)C(C)C(=O)C2C)cc1 (configuration not stated) |
| < 0.7 | O=C(OCc1csc(-c2ccccc2)n1)c1ccc(O)cc1 |
| > 38.3 | COC(=O)C(CC(C)C)NC(=O)c1cccs1 (configuration not stated) |
| 25.2 (≈ 136 µM) | NC(=S)Cc1ccccc1Cl |
| > 45.3 | CCN(CC(=O)Nc1cccc(OC)c1)C(=O)c1ccco1 |
| 38.4 (≈ 116 µM) | COCCNc1c(-c2ccc(OC)cc2)nc2ccc(Cl)cn12 |
| 0.8 (≈ 2.36 µM) | Cc1ccc(OCC(=O)Nc2ccccc2C(=O)NC2CC2)cc1C |
| 7.1 (≈ 22.4 µM) | Cc1ccc2c(c1)N=C(c1ccccc1)CC(C(Cl)Cl)=N2 |

Continued, molecule first:

| Compound | solubility kinetic [µg/mL] |
| --- | --- |
| COc1ccccc1NS(=O)(=O)c1ccc(C(=O)N2CCCCCC2)cc1 | > 58.3 |
| Cc1c(C(=O)N2CCCc3ccccc32)oc2ccccc12 | 5.7 (≈ 19.6 µM) |
| CCOc1ccccc1NC(=O)COC(=O)c1nc2nccc(C)n2n1 | > 53.3 |
| COc1ccc(S(=O)(=O)N2CCN(CCc3ccccc3)CC2)cc1 | 1.5 (≈ 4.16 µM) |
| CCOc1ccc(-c2nc(N)ncc2-c2ccc(Cl)cc2)c(O)c1 | 0.9 (≈ 2.63 µM) |
| O=C(COC(=O)c1cccc([N+](=O)[O-])c1)NC1CCCC1 | 32.3 (≈ 111 µM) |
| CCOc1ccc(CCNC(=O)C2(c3ccccc3)CC2)cc1OCC | > 53 |
| O=C(c1ccc(F)cc1)C(C(=O)N1CCCCC1)n1ccccc1=O (configuration not stated) | > 51.4 |
| Cc1ccc(C(=O)O)cc1NC(=O)C1CCN(S(=O)(=O)c2ccc3c(c2)OCCO3)CC1 | > 69.1 |
| CNc1ccc(C(=O)c2ccccc2C(=O)O)cc1[N+](=O)[O-] | > 45 |
| CN(C(=O)CSc1nc2ccccc2c(=O)n1C)C1CCS(=O)(=O)C1 (configuration not stated) | > 57.2 |
| O=C(NCCCN1CCCC1=O)Nc1ccccc1F | > 41.9 |
| Cc1cccc(OCCCCN2CCNCC2)c1 | 21.3 (≈ 85.8 µM) |
| O=C(CNC1CCCCC1)Nc1cccc(C(F)(F)F)c1 | > 45 |
| Cc1c(Cl)cccc1NC(=S)N1CCCCCC1 | 29.3 (≈ 104 µM) |
| O=Cc1ccc2ccc3cccnc3c2n1 | > 31.2 |
| CCOC(=O)C1CCN(C(=O)COc2cccc3ccccc23)CC1 | 43.2 (≈ 127 µM) |
| O=C(N/N=C/c1ccncc1)C12CC3CC(CC(C3)C1)C2 | > 42.5 |
| CC(C)N(Cc1nc(-c2ccc3c(c2)OCO3)no1)CC1CCC(=O)N1 (configuration not stated) | 37.3 (≈ 104 µM) |
| N/C(=N\OCC(=O)Nc1ccc(F)c(Cl)c1)c1ccccc1 | > 48.3 |

| Compound | solubility kinetic [µg/mL] |
| --- | --- |
| N#Cc1ccc(C(=O)NC2=NCCS2)cc1 | 21.8 (≈ 94.3 µM) |
| Cc1cccc(NC(=S)N2CCN(c3ccccn3)CC2)c1 | 6.7 (≈ 21.4 µM) |
| C=CCn1c(O)c(N=O)c2ccccc21 | > 30.3 |
| COc1ccc(C(=O)CCC(C)(C)[N+](=O)[O-])cc1 | 31.8 (≈ 127 µM) |
| Cc1c(C(=O)N2CCC2)oc2ccc(Cl)cc12 | 15.6 (≈ 62.5 µM) |
| COC(=O)[C@H](Cc1ccccc1)NC(=O)c1ccc2ccccc2n1 | 23.6 (≈ 70.6 µM) |
| CC(C)c1ccc(OCc2ccc(C(=O)N3CCCC3)o2)cc1 | 26.7 (≈ 85.2 µM) |
| Cc1ccc(C(=O)Nc2ncccc2O)o1 | > 32.7 |
| COc1ccc(OC)c(NC(=O)CSc2nc(O)cc(=O)n2CC(C)C)c1 | > 59 |
| CN=C(C)/C(C(=O)OC)=C(/O)c1ccc(Cl)cc1Cl | 34 (≈ 113 µM) |
| COC(=O)Cn1ncc(N(C)Cc2ccccc2)c(Cl)c1=O | > 48.3 |
| O=C(CCCO)NC1Cc2ccccc2C1 | 31.7 (≈ 145 µM) |
| O=C(/C=C/c1ccc([N+](=O)[O-])cc1)NCCOc1ccc(F)cc1 | 4 (≈ 12.1 µM) |
| Cc1nc(C)c(Oc2ccc(Cl)cc2Cl)c(=O)[nH]1 | 6.9 (≈ 24.2 µM) |
| NS(=O)(=O)c1cccc(NS(=O)(=O)c2cccc(C(F)(F)F)c2)c1 | > 57.1 |
| O=S1(=O)N=C2CCCCCN2C(c2ccc(F)cc2)N1 (configuration not stated) | > 44.6 |
| O=C(O)C1Cc2[nH]cnc2C(c2cccc([N+](=O)[O-])c2)N1 (configuration not stated) | 43.1 (≈ 150 µM) |
| O=C(Nc1cc(Cl)cc(Cl)c1)c1coc(=O)c(Br)c1 | 5.1 (≈ 14 µM) |
| CCOC(=O)CSc1nc2c(c(=O)[nH]1)C(C)(CC)Cc1ccccc1-2 (configuration not stated) | 1.5 (≈ 4.18 µM) |
| CCOC(=O)CCNCc1ccc(OC)c(OC)c1.Cl | > 45.6 |

| Compound | solubility kinetic [µg/mL] |
| --- | --- |
| COc1cc(CN2CCCN(C)CC2)cc([N+](=O)[O-])c1O | 33.9 (≈ 115 µM) |
| COc1ccc(NC(=S)NC2CCCCC2)cn1 | > 39.8 |
| O=C1CN(C(=O)COC(=O)COc2ccccc2)c2ccccc2N1 | > 51.1 |
| O=C(OCC(=O)N1CCCC1=O)c1nc(Cl)c(Cl)c(Cl)c1Cl | 32.9 (≈ 85.2 µM) |
| COc1ccccc1C1Nc2ccccc2NC2=C1C(=O)CC(C)(C)C2 (configuration not stated) | 51.6 (≈ 148 µM) |
| O=C(NC1CCN(Cc2ccccc2)CC1)c1ccccc1Cl | 35.7 (≈ 109 µM) |
| CCc1cccc(CC)c1NC(=O)CNCc1cccs1 | 18.7 (≈ 61.8 µM) |
| NS(=O)(=O)c1cccc(NC(=O)c2ccc(NS(=O)(=O)c3cccc([N+](=O)[O-])c3)cc2)c1 | > 71.5 |
| N#Cc1ccc(COC(=O)CCc2c[nH]c3ccccc23)cc1 | 3 (≈ 9.86 µM) |
| O=S(=O)(CCN1CCN(c2ccccn2)CC1)c1ccc(F)cc1 | 49 (≈ 140 µM) |
| O=C(NC1CC1)C1CCCN1C(=O)NC1CCCCC1 (configuration not stated) | > 41.9 |
| CC(=O)C1=C(O)C(=O)N(Cc2ccccc2)C1c1ccc(F)cc1 (configuration not stated) | > 48.8 |
| Cc1ncc([N+](=O)[O-])n1S(=O)(=O)c1cc(Cl)ccc1Cl | 40.3 (≈ 120 µM) |
| CC12COC3(C(=O)Nc4ccccc4F)CC1CCC32C (configuration not stated) | 9.1 (≈ 31.4 µM) |
| Cc1ccc2cc(CCNC(=O)CCCc3ccccc3)c(=O)[nH]c2c1 | 2.2 (≈ 6.31 µM) |
| O=S(=O)(c1ccc(F)c(F)c1)N1CCN(c2ncccn2)CC1 | 2.3 (≈ 6.76 µM) |
| COc1ccc(N2CCN(C(=O)CN3C(=O)NC4(CCCCC4C)C3=O)CC2)cc1 (configuration not stated) | > 62.2 |
| O=C(COC(=O)c1ccc2c(c1)OCO2)Nc1ccccc1F | 6.3 (≈ 19.9 µM) |
| Cc1cc(NC(=O)Cc2ccsc2)ccc1Br | 4.5 (≈ 14.5 µM) |
